Key:
lymph node (LN) cells = assay: Proliferation, cytokine production and transcription factor expression of LN cells from AICAR-treated EAU mice; format: in vivo, C57BL/6 (WT) mice
Method: To extract LN cells, draining lymph nodes from 6 to 8 mice were isolated at sixteen days after immunization and pooled. Single cell suspensions were made using a cell strainer (BD, Franklin Lakes, N.J.). CD4 T cell-enriched fractions were prepared using CD4 Microbeads (Miltenyi Biotec GmbH, Bergisch Gladbach, Germany), and purity of the suspensions was determined by staining with anti-CD4 antibody (GK1.5, Biolegend, San Diego, Calif.) and flow cytometry. All experimental samples of CD4 T cell-enriched fractions were at least 95% CD4-positive. To measure cell proliferation, LN cells were resuspended at 5×10^5 cells per 200 μl of medium in 96-well flat-bottom plates. Cells were incubated for 72 hours and proliferation during the last 12 hours was measured by using a bromodeoxyuridine (BrdU) cell proliferation assay kit (Millipore, Billerica, Mass.). Supernatant in the culture medium was collected at 48 hours and cytokine production in the supernatant was measured by ELISA using the Quantikine mouse IFN-γ, IL-4, IL-10 and IL-17 kits (R&D system, Minneapolis, Minn.). To measure the expression of T-bet and RORγt, real-time PCR was carried out as described above using the following TaqMan gene expression assays: T-bet (Mm00450960_m1) and RORγt (Mm01261022_m1). Quantitative expression data were acquired and analyzed with a Step One Plus real-time PCR system (Applied Biosystems). In order to assess the in vivo effect of AICAR on the development of IRBP-reactive T cells, LN cells from control and AICAR-treated mice were stimulated with either IRBP or a non-specific T cell stimulator, anti-CD3. Proliferative response was measured with BrdU incorporation. […] In comparison, when the cells were treated with anti-CD3, there was no difference in T cell proliferation between the AICAR treated and control mice (FIG. 8B).

[1] = test system: endotoxin-induced uveitis (EIU); assay: Histopathologic evaluation of EIU eyes (iris-ciliary body); format: in vivo, Lewis rats; conditions: AICAR 50 mg/kg pretreatment, 24 h after LPS
Method: Male Lewis rats ranging from 6-8 weeks old (Charles River, Wilmington, Mass.) were used for these studies. To study the effects of AICAR pretreatment, AICAR and PBS (for placebo treatment) were delivered via intraperitoneal injection of AICAR (50 mg/kg or 100 mg/kg body weight; Sigma) diluted in 150 μl PBS or equal volume of PBS at 6 hours before and at the same time as LPS injection. Four experimental groups of rats were compared: (1) Normal: no treatment (2) AICAR: normal rats treated with AICAR 6 hours before examination; (3) LPS: EIU rats treated with PBS; (4) LPS+AICAR: EIU rats treated with AICAR. Two additional groups of rats were used to study the effects of AICAR (50 mg/kg) given either at the same time as LPS injection or at 6 hours after LPS injection. For histopathologic evaluations, EIU rats were euthanized 24 hours after LPS injection. The eyes were enucleated immediately and stored in 10% formalin solution. The eyes were then embedded in paraffin, and 10 μm sagittal sections were cut and stained with hematoxylin and eosin. For histopathologic evaluation, the anterior chamber and posterior chamber around the iris-ciliary body complex were examined with light microscopy.

AMPKα1 KO BMDCs = assay: LPS-stimulated AMPKα1 KO BMDC maturation and cytokine production; format: cell-based, mice; conditions: after LPS stimulation with AICAR
Method: BMDCs were generated as previously described (Wang et al. (2005) IMMUNOL. LETT. 98:123-130). Briefly, bone marrow was flushed from the femurs and tibias of naive mice (6 to 8-week-old WT or AMPKα1 KO mice). The red blood cells were lysed using Red Blood Cell Lysing Buffer (Sigma). Approximately 2×10^6 cells were cultured in complete medium (RPMI 1640 medium containing 10% FBS, […], 10 mM HEPES [pH 7.4], 2 mM glutamine, 100 U/ml penicillin, and […]) including 10 ng/ml GM-CSF (Pepro Tech, London, England). Fresh media was added to the cells on day 4 of culture, and nonadherent cells and loosely adherent cells were collected as immature DCs on day 7. Immature DCs were stimulated with 100 ng/ml LPS (Salmonella typhimurium; Sigma) for 24 hours to obtain mature DCs. In some experiments, AICAR was added to the culture. […] After LPS stimulation for 24 hours, supernatant of the BMDC culture was collected and IL-6, TNF-α and IL12/23 p40 concentrations were measured (R&D system). […] In these experiments, AMPKα1 KO mice were provided as previously described (Jorgensen et al. (2004) J. BIOL. CHEM. 279:1070-1079). Since BMDCs expressed only AMPKα1, BMDCs were extracted from AMPK KO mouse and used to determine the role of AMPK in the anti-inflammatory effects of AICAR. As shown in FIGS. 14A and 14B, AICAR suppressed the maturation of AMPKα1 KO BMDCs.

NF-κB P65 = NF-κB P65 in retinal nuclear extracts (ELISA); format: in vivo, Lewis rats; conditions: AICAR pretreatment; 3 hours after LPS; n=9; PBS-treated EIU 27.3±11.0, control 8.3±8.6
Method: Male Lewis rats ranging from 6-8 weeks old (Charles River, Wilmington, Mass.) were used for these studies. To study the effects of AICAR pretreatment, AICAR and PBS (for placebo treatment) were delivered via intraperitoneal injection of AICAR (50 mg/kg or 100 mg/kg body weight; Sigma) diluted in 150 μl PBS or equal volume of PBS at 6 hours before and at the same time as LPS injection. Four experimental groups of rats were compared: (1) Normal: no treatment (2) AICAR: normal rats treated with AICAR 6 hours before examination; (3) LPS: EIU rats treated with PBS; (4) LPS+AICAR: EIU rats treated with AICAR. Two additional groups of rats were used to study the effects of AICAR (50 mg/kg) given either at the same time as LPS injection or at 6 hours after LPS injection. To investigate the LPS-induced signal transduction pathway, NF-κB P65 protein levels translocated into the nuclei of retinal cell extracts were examined 3 hours after LPS injection. For the measurement of NF-κB activity, pooled retinas from six normal rats, nine EIU PBS-treated rats, and nine EIU AICAR-treated rats were analyzed. […] The amount of NF-κB in the nuclear extracts was analyzed by measuring the p65 protein levels with a NF-κB detection kit (p65 Transcription Factor Assay kit; Active Motif, Carlsbad, Calif.). NF-κB concentration was calculated and corrected for protein concentration.

[2] = AICAR-treated EAU mice, real-time PCR
[3] = LN cells from AICAR-treated EAU mice, ELISA

NC(=O)c1ncn([C@@H]2O[C@H](CO)[C@@H](O)[C@H]2O)c1N [AICAR, 5-aminoimidazole-4-carboxamide-1-β-d-ribofuranoside]
RORγt mRNA expression in CD4 T cells (lymph node (LN) cells; [2]): suppressed
T-bet mRNA expression in CD4 T cells (lymph node (LN) cells; [2]): suppressed
T cell proliferation (BrdU), anti-CD3 stimulation (lymph node (LN) cells; LN cells from AICAR treated vs control mice): no difference
IFN-γ production by LN cells (lymph node (LN) cells; [3]): significantly suppressed
IL-10 production by LN cells (lymph node (LN) cells; [3]): significantly suppressed
IL-17 production by LN cells (lymph node (LN) cells; [3]): significantly suppressed
Antigen-specific T cell proliferation (BrdU), IRBP stimulation (lymph node (LN) cells; LN cells from AICAR-treated vs untreated EAU mice, dose-dependent manner): suppressed
Number of leukocytes infiltrated around the iris-ciliary body (histopathology) [1]: suppressed
CD40 expression in AMPKα1 KO BMDCs (AMPKα1 KO BMDCs): significantly suppressed
CD80 expression in AMPKα1 KO BMDCs (AMPKα1 KO BMDCs): significantly suppressed
CD86 expression in AMPKα1 KO BMDCs (AMPKα1 KO BMDCs): significantly suppressed
I-A^b expression in AMPKα1 KO BMDCs (AMPKα1 KO BMDCs): significantly suppressed
IL12/23 p40 production in AMPKα1 KO BMDCs (AMPKα1 KO BMDCs): suppressed
IL-6 production in AMPKα1 KO BMDCs (AMPKα1 KO BMDCs): suppressed
TNF-α production in AMPKα1 KO BMDCs (AMPKα1 KO BMDCs): suppressed
NF-κB P65 protein level in retinal nuclear extracts (NF-κB P65): 18.2±3.9 ng/mg total protein
